In patent US20230066011A1, “PYRROLOPYRIMIDINE DERIVATIVE, AND PHARMACEUTICAL COMPOSITION FOR PREVENTING OR TREATING PROTEIN KINASE-RELATED DISEASE COMPRISING SAME AS ACTIVE INGREDIENT” (VORONOI CO., LTD., priority 2019, published 2023):

Key:
[1] = molecular target: T1, human GST-DYRK1A (Homo sapiens, UniProt Q13627); assay: GST-DYRK1A enzyme inhibition, ADP-Glo kinase assay; assay type: biochemical; conditions: ATP 10 μM, GST-DYRK1A full length, read-out: DYRK1 IC50
T1 construct: purified human GST-DYRK1A (full length, Thermo Scientifics) enzyme; purchased Thermo Scientifics
Outline: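 Full-length human GST-DYRK1A (10 ng) with 10 μM ATP and specific substrate in 40 mM Tris-HCl pH 7.4, 20 mM MgCl2, 0.5 mg/mL BSA, 50 μM DTT, 1 h at 25 °C. ADP formation read by ADP-Glo luminescence relative to solvent control; IC50 from three data sets.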

[2] = molecular target: T2, human GST-CLK1 (Homo sapiens, UniProt P49759); assay: GST-CLK1 enzyme inhibition, ADP-Glo kinase assay; assay type: biochemical; conditions: ATP 10 μM, GST-CLK1 129-end
T2 construct: purified human GST-CLK1 (129-end, SignalChem) enzyme; purchased SignalChem
T2 sequence (P49759 129-484 limits assumed): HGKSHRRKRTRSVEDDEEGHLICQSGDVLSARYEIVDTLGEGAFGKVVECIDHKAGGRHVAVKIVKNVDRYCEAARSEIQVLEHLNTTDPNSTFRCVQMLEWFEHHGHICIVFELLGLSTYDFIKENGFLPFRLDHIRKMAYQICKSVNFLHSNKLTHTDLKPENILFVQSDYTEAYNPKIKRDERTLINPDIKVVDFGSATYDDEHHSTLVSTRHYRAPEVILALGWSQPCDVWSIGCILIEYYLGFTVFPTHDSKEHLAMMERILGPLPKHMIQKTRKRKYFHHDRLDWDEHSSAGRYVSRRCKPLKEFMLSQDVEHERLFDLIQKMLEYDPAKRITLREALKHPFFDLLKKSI
Outline: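 Human GST-CLK1 (129-end, 3 ng) reacted with substrate and 10 μM ATP for 1 h at 25° C in 40 mM Tris-HCl pH 7.4, 20 mM MgCl2, 0.5 mg/mL BSA, 50 μM DTT. ADP-Glo luminescence was normalised to solvent control; IC50 (nM) from 3 data sets.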

SMILES | IC50 [1] [µM] | IC50 [2] [µM]
CCCNc1nc(Nc2ccc(C(=O)N3CCOCC3)c3c2OCC3)nc2[nH]cc(C#N)c12 [Example 348, 2-((4-(morpholine-4-carbonyl)-2,3-dihydrobenzo-furan-7-yl)amino)-4-(propylamino)-7H-pyrrolo[2,3-d]pyrimidine-5-carbonitrile] | 0.301 to 1 | < 0.1
CC(C)CNc1nc(Nc2ccc(C(=O)N3CCOCC3)c3c2OCC3)nc2[nH]cc(C#N)c12 [Example 350, 4-(isobutyl-amino)-2-((4-(morpholine-4-carbonyl)-2,3-dihydrobenzo-furan-7-yl)amino)-7H-pyrrolo[2,3-d]pyrimidine-5-carbonitrile] | 0.301 to 1 | < 0.1
CC(C)CNc1nc(Nc2ccc(C(=O)N3CCC(N4CCOCC4)CC3)c3c2OCC3)nc2[nH]cc(C#N)c12 [Example 351, 4-(isobutyl-amino)-2-((4-(4-morpholino-piperidine-1-carbonyl)-2,3-dihydro-benzofuran-7-yl)amino)-7H-pyrrolo[2,3-d]pyrimidine-5-carbonitrile] | 0.301 to 1 | < 0.1
CC(C)Nc1nc(Nc2ccc(C(=O)N3CCOCC3)c3c2OCC3)nc2[nH]cc(C#N)c12 [Example 352, 4-(isopropyl-amino)-2-((4-(morpholine-4-carbonyl)-2,3-dihydro-benzofuran-7-yl)amino)-7H-pyrrolo[2,3-d]pyrimidine-5-carbonitrile] | 0.301 to 1 | < 0.1
COc1cc(P(C)(C)=O)ccc1Nc1nc(NCC(C)C)c2c(C(F)(F)F)c[nH]c2n1 [Example 370, (4-((4-(isobutylamino)-5-(trifluoromethyl)-7H-pyrrolo[2,3-d]pyrimidin-2-yl)amino)-3-methoxyphenyl) dimethyl-phosphine oxide] | 0.301 to 1 | < 0.1
COc1cc(P(C)(C)=O)ccc1Nc1nc(NC(C)C)c2c(C(F)(F)F)c[nH]c2n1 [Example 371, (4-((4-(isopropylamino)-5-(trifluoromethyl)-7H-pyrrolo[2,3-d]pyrimidin-2-yl)amino)-3-methoxyphenyl) dimethyl phosphine oxide] | 0.301 to 1 | 0.101 to 0.3
CC[C@H](C)Nc1nc(Nc2ccc(S(=O)(=O)N3CCOCC3)cc2OC)nc2[nH]cc(C(F)(F)F)c12 [Example 379, (S)-N^4-(sec-butyl)-N^2-(2-methoxy-4-(morpholino-sulfonyl)phenyl)-5-(trifluoromethyl)-7H-pyrrolo[2,3-d]pyrimidine-2,4-diamine] | 0.301 to 1 | 0.301 to 1
CC[C@H](C)Nc1nc(Nc2ccc(S(C)(=O)=O)cc2OC)nc2[nH]cc(C(F)(F)F)c12 [Example 380, (S)-N^4-(sec-butyl)-N^2-(2-methoxy-4-(methylsulfonyl)phenyl)-5-(trifluoromethyl)-7H-pyrrolo[2,3-d]pyrimidine-2,4-diamine] | 0.301 to 1 | 0.301 to 1
COc1cc(P(C)(C)=O)ccc1Nc1nc(NC2CCC2)c2c(C(F)(F)F)c[nH]c2n1 [Example 386, (4-((4-(cyclo-butylamino)-5-(trifluoromethyl)-7H-pyrrolo[2,3-d]pyrimidin-2-yl)amino)-3-methoxyphenyl) dimethyl phosphine oxide] | 0.301 to 1 | 0.301 to 1

Now from value to compound:

IC50 [1] [µM] | IC50 [2] [µM] | SMILES
0.301 to 1 | < 0.1 | CCCCNc1nc(Nc2ccc(C(=O)N3CC(CO)(CO)C3)c3c2OCCO3)nc2[nH]cc(C#N)c12 [Example 341, 2-((8-(3,3-bis (hydroxymethyl)azetidine-1-carbonyl)-2,3-dihydrobenzo [b][1,4]dioxin-5-yl)amino)-4-(butylamino)-7H-pyrrolo[2,3-d]pyrimidine-5-carbonitrile]
0.301 to 1 | 0.301 to 1 | N#Cc1c[nH]c2nc(Nc3ccc(C(=O)N4CCOCC4)c4c3OCC4)nc(NCC3CCCC3)c12 [Example 342, 4-((cyclo-pentylmeth-yl)amino)-2-((4-(morpholine-4-carbonyl)-2,3-dihydrobenzo-furan-7-yl)amino)-7H-pyrrolo[2,3-d]pyrimidine-5-carbonitrile]
0.301 to 1 | < 0.1 | CS(=O)(=O)CCNc1nc(Nc2ccc(C(=O)N3CCOCC3)c3c2OCC3)nc2[nH]cc(C#N)c12 [Example 344, 4-((2-(methyl-sulfonyl)eth-yl)amino)-2-((4-(morpholine-4-carbonyl)-2,3-dihydrobenzo-furan-7-yl)amino)-7H-pyrrolo[2,3-d]pyrimidine-5-carbonitrile]
0.101 to 0.3 | < 0.1 | CCNc1nc(Nc2ccc(C(=O)N3CCOCC3)c3c2OCC3)nc2[nH]cc(C#N)c12 [Example 346, 4-(ethylamino)-2-((4-(morpholine-4-carbonyl)-2,3-dihydrobenzo-furan-7-yl)amino)-7H-pyrrolo[2,3-d]pyrimidine-5-carbonitrile]
0.101 to 0.3 | 0.101 to 0.3 | COCCNc1nc(Nc2ccc(C(=O)N3CCOCC3)c3c2OCC3)nc2[nH]cc(C#N)c12 [Example 358, 4-((2-methoxy-ethyl)ami-no)-2-((4-(morpholine-4-carbonyl)-2,3-dihydrobenzo-furan-7-yl)amino)-7H-pyrrolo[2,3-d]pyrimidine-5-carbonitrile]
0.101 to 0.3 | < 0.1 | N#Cc1c[nH]c2nc(Nc3ccc(C(=O)N4CCOCC4)c4c3OCC4)nc(NC3CCC3)c12 [Example 360, 4-(cyclo-butylamino)-2-((4-(morpholine-4-carbonyl)-2,3-dihydrobenzo-furan-7-yl)amino)-7H-pyrrolo[2,3-d]pyrimidine-5-carbonitrile]
< 0.1 | < 0.1 | CC(C)Nc1nc(Nc2ccc(C(=O)N3CCC(N4CCOCC4)CC3)c3c2OCCO3)nc2[nH]cc(C(F)(F)F)c12 [Example 365, (8-((4-(isopropylamino)-5-(trifluoromethyl)-7H-pyrrolo[2,3-d]pyrimidin-2-yl)amino)-2,3-dihydrobenzo[b] [1,4]dioxin-5-yl) (4-morpholino-piperidin-1-yl)methanone]
0.101 to 0.3 | < 0.1 | CCNc1nc(Nc2ccc(P(C)(C)=O)cc2OC)nc2[nH]cc(C(F)(F)F)c12 [Example 368, (4-((4-(ethylamino)-5-(trifluoromethyl)-7H-pyrrolo[2,3-d]pyrimidin-2-yl)amino)-3-methoxyphenyl) dimethyl-phosphine oxide]
0.101 to 0.3 | < 0.1 | CCCNc1nc(Nc2ccc(P(C)(C)=O)cc2OC)nc2[nH]cc(C(F)(F)F)c12 [Example 369, (3-methoxy-4-((4-(propylamino)-5-(trifluoromethyl)-7H-pyrrolo[2,3-d]pyrimidin-2-yl)amino)phenyl) dimethyl-phosphine oxide]
< 0.1 | < 0.1 | CCNc1nc(Nc2ccc(C(=O)N3CCOCC3)c3c2OCC3)nc2[nH]cc(C(F)(F)F)c12 [Example 437, (7-((4-(ethylamino)-5-(trifluoromethyl)-7H-pyrrolo[2,3-d]pyrimidin-2-yl)amino)-2,3-dihydrobenzo-furan-4-yl) (morpholino) methanone]
< 0.1 | < 0.1 | CCCNc1nc(Nc2ccc(C(=O)N3CCOCC3)c3c2OCC3)nc2[nH]cc(C(F)(F)F)c12 [Example 445, morpholino(7-((4-(propylamino)-5-(trifluoromethyl)-7H-pyrrolo[2,3-d]pyrimidin-2-yl)amino)-2,3-dihydrobenzo-furan-4-yl)methanone]
